Experiments:
[1] = biological target: T1, KPC-2 (Klebsiella pneumoniae, UniProt Q9F663); test: β-lactamase inhibitory activity, determination of IC50 (nitrocefin hydrolysis); type: biochemical
T1 construct: made in house; host or cells: E. coli

[2] = biological target: T2, SHV-1 (Klebsiella pneumoniae, UniProt P0AD64); test: as above; type: biochemical
T2 construct: made in house; host or cells: E. coli

[3] = biological target: T3, OXA-11 (Pseudomonas aeruginosa, UniProt Q06778); test: as above; type: biochemical
T3 construct: made in house; host or cells: E. coli
T3 sequence (Q06778 21-266): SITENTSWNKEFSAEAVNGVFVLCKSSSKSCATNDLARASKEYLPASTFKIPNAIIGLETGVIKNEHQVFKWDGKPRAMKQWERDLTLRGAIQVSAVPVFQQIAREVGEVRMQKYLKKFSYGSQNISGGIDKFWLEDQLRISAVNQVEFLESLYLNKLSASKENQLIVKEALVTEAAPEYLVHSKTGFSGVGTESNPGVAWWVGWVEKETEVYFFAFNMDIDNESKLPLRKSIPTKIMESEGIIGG

[4] = biological target: T4, OXA-15 (Pseudomonas aeruginosa, UniProt Q51574); test: as above; type: biochemical
T4 construct: made in house; host or cells: E. coli
T4 sequence (Q51574 22-275): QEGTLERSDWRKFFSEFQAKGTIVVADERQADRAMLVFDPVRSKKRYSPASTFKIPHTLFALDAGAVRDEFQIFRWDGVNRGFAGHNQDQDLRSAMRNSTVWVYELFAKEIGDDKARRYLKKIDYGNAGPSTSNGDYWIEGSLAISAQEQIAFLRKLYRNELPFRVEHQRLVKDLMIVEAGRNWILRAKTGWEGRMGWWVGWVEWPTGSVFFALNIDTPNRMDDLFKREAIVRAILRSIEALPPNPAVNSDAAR

[5] = system: K. pneumoniae UFR68 (TEM-1, SHV-11, CTX-M-15, KPC-3); test: microbe, parasite or virus in culture; type: cell-based
[6] = biological target: T5, CTX-M-15 (Escherichia coli, UniProt Q9EXV5); test: β-lactamase inhibitory activity, determination of IC50 (nitrocefin hydrolysis); type: biochemical
T5 construct: made in house; host or cells: E. coli
T5 sequence (Q9EXV5 entry or part of it): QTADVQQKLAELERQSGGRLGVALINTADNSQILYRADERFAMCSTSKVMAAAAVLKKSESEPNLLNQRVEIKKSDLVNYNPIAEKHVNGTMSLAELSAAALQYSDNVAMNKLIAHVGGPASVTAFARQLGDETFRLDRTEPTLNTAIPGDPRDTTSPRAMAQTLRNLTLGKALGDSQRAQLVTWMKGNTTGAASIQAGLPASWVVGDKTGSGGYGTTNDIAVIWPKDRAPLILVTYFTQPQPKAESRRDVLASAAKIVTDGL

[7] = system: K. pneumoniae 200047 (TEM-1, SHV-32, CTX-M-15, OXA-1); test: microbe, parasite or virus in culture; type: cell-based
[8] = system: P. aeruginosa UFR93 (Derepressed ampC, OprD-, MexAB+, MexXY+); test: MIC of compounds and synergy with ceftazidime (broth microdilution); type: cell-based
Procedure: (§1) Briefly, compounds alone according to the invention were prepared in DMSO and spotted (2 μL each) on sterile polystyrene plates (Corning, 3788). […] Microplates were incubated for 16-20 h at 35° C. in ambient air. The MIC of the compounds was defined as the lowest concentration of said compounds that prevented bacterial growth as read by visual inspection.

[9] = system: P. aeruginosa UFR90 (Derepressed ampC, OprD-); test: as above; type: cell-based
Procedure: as §1

[10] = system: E. cloacae UFR70 (TEM-1, CTX-M-15, CMY-2, OXA-1, Porin loss); test: as above; type: cell-based
Procedure: as §1

[11] = system: P. aeruginosa UFR92 (Derepressed ampC, OprD-); test: as above; type: cell-based
Procedure: as §1

[12] = biological target: T6, OXA-48 (Klebsiella pneumoniae, UniProt Q6XEC0); test: β-lactamase inhibitory activity, determination of IC50 (nitrocefin hydrolysis); type: biochemical
T6 construct: made in house; host or cells: E. coli
T6 sequence (Q6XEC0 23-265 limits assumed): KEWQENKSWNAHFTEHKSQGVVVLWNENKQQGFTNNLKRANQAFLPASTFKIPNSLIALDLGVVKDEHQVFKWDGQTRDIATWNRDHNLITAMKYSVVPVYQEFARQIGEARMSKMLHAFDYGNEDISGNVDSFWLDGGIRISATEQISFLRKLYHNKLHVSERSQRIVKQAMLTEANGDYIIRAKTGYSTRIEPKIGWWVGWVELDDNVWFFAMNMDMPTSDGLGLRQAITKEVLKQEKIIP

[13] = system: K. oxytoca UFR21 (TEM-1, CTX-M-15, OXA-48); test: microbe, parasite or virus in culture; type: cell-based
[14] = biological target: T7, OXA-1 (Escherichia coli, UniProt P13661); test: β-lactamase inhibitory activity, determination of IC50 (nitrocefin hydrolysis); type: biochemical
T7 construct: made in house; host or cells: E. coli
T7 sequence (P13661 26-276): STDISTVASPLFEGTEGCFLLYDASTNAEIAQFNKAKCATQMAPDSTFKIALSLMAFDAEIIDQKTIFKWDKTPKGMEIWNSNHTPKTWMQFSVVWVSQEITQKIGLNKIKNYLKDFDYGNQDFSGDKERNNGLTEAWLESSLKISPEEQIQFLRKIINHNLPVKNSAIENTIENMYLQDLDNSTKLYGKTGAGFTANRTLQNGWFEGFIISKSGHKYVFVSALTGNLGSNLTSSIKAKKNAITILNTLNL

[15] = system: K. pneumoniae 160143 (TEM-1, SHV-1, CTX-M-15, KPC-2, OXA-1); test: microbe, parasite or virus in culture; type: cell-based
Procedure: as §1

[16] = system: E. coli 190317 (TEM-1, SHV-12, CTX-M-15, OXA-1); test: microbe, parasite or virus in culture; type: cell-based
Procedure: as §1

[17] = system: E. cloacae 260508 (TEM-1, CTX-M-15); test: microbe, parasite or virus in culture; type: cell-based
Procedure: as §1

[18] = system: E. cloacae UFR85 (TEM-1, CTX-M-15, derepressed ampC); test: microbe, parasite or virus in culture; type: cell-based
Procedure: […] […] Microplates were incubated for 16-20 h at 35° C. in ambient air. The MIC of the compounds was defined as the lowest concentration of said compounds that prevented bacterial growth as read by visual inspection.

[19] = Klebsiella pneumoniae, 18 h, read-out: MIC compounds of the invention alone
[20] = Pseudomonas aeruginosa, 18 h, read-out: MIC compounds of the invention alone
[21] = Enterobacter cloacae, 18 h, read-out: MIC compounds of the invention alone

T1 sequence (Q9F663 25-293 limits assumed): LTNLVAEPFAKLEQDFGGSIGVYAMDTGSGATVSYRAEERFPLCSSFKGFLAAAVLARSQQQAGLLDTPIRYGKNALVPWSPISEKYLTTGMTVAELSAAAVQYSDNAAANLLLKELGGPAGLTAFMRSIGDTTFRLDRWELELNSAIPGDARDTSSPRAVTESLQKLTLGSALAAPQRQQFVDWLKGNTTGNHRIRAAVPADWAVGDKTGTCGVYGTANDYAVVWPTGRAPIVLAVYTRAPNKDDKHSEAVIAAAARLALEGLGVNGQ
T2 sequence (P0AD64 22-286): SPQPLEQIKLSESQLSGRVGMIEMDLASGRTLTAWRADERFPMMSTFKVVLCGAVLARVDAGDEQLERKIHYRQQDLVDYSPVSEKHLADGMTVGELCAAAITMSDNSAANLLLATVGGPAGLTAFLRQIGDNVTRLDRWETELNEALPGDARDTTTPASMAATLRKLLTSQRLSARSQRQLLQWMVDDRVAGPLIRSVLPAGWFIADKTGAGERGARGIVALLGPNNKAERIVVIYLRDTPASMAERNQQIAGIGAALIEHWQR

With `NC[C@H]1C=C(c2cnco2)[C@@H]2CN1C(=O)N2OS(=O)(=O)[O-].O=C(O)C(F)(F)F.[Na+]` (relative stereo) [Example 1, Sodium and 2,2,2-trifluoroacetate [trans-2-(azaniumylmethyl)-4-oxazol-5-yl-7-oxo-1,6-diazabicyclo[3.2.1]oct-3-en-6-yl] sulfate] the IC50 [1] was 7.8 nM, the IC50 [2] was 1.3 nM and the IC50 [3] was 4.1 nM. The IC50 [4] was 0.65 nM, the MIC [5, 19] was over 32 µg/mL and the “MIC, combination of CAZ and compounds of the invention” value (“MIC, combination” for short) ([5]; MIC of ceftazidime with compound fixed at 4 μg/mL, strain UFR68 (K. pneumoniae)) was 1 µg/mL. The IC50 [6] was 5.4 nM, the MIC [7, 19] was over 32 µg/mL and the “MIC, combination” value ([7]; MIC of ceftazidime with compound fixed at 4 μg/mL, strain 200047 (K. pneumoniae)) was 0.5 µg/mL. For the same compound, the “MIC, combination” value ([8]; MIC of ceftazidime with compound fixed at 4 μg/mL, strain UFR93 (P. aeruginosa)) was under 0.25 µg/mL, the MIC [8, 20] was 8 µg/mL and the “MIC, combination” value ([9]; MIC of ceftazidime with compound fixed at 4 μg/mL, strain UFR90 (P. aeruginosa)) was under 0.25 µg/mL. For the same compound, the MIC [9, 20] was 0.5 µg/mL, the MIC [10, 21] was 16 µg/mL and the “MIC, combination” value ([10]; MIC of ceftazidime with compound fixed at 4 μg/mL, strain UFR70 (E. cloacae)) was 1 µg/mL. For the same compound, the “MIC, combination” value ([11]; MIC of ceftazidime with compound fixed at 4 μg/mL, strain UFR92 (P. aeruginosa)) was under 0.25 µg/mL, the MIC [11, 20] was 2 µg/mL and the IC50 [12] was 0.51 nM. The MIC ([13]; Klebsiella oxytoca, 18 h, read-out: MIC compounds of the invention alone) was over 32 µg/mL, the “MIC, combination” value ([13]; MIC of ceftazidime with compound fixed at 4 μg/mL, strain UFR21 (K. oxytoca)) was 0.5 µg/mL and the IC50 [14] was 80 nM. The MIC [15, 19] was over 32 µg/mL, the “MIC, combination” value ([15]; MIC of ceftazidime with compound fixed at 4 μg/mL, strain 160143 (K. pneumoniae)) was 1 µg/mL and the MIC ([16]; Escherichia coli, 18 h, read-out: MIC compounds of the invention alone) was 0.031 µg/mL. For the same compound, the “MIC, combination” value ([16]; MIC of ceftazidime with compound fixed at 4 μg/mL, strain 190317 (E. coli)) was under 0.25 µg/mL, the MIC ([17]; Enterobacter cloacae, read-out: MIC compounds of the invention alone) was 0.063 µg/mL and the “MIC, combination” value ([17]; MIC of ceftazidime with compound fixed at 4 μg/mL, strain 260508 (E. cloacae)) was at most 0.125 µg/mL. For the same compound, the MIC [18, 21] was over 32 µg/mL and the “MIC, combination” value ([18]; MIC of ceftazidime with compound fixed at 4 μg/mL, strain UFR85 (E. cloacae)) was 2 µg/mL.
